Test results: US10030016B2 (Sunesis Pharmaceuticals, Inc., priority 2009, dated 2018)
Counter-ions that a name gives are not always drawn. Like-named read-outs stand apart in the source and are kept apart here.

Tests used:
PDK1 = PDK1 (Homo sapiens (Human), UniProt O15530); test: PDK1 kinase assay (coupled PDK1/AKT/FAM-crosstide assay, IMAP fluorescence polarization); format: biochemical
Method in brief: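 PDK1 activity is measured indirectly through activation of a PIFtide-fused AKT2 construct that phosphorylates FAM-crosstide (100 nM). The reaction uses 0.75 nM PDK1, 40 μM ATP, 30 min, 25° C, with IMAP polarization detection.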

[1] = system: phospho-akt (Thr308) in PC-3 cells; test: Inhibition of phospho-akt (Thr308) in PC-3 cells, MSD phospho-akt 308 ELISA kit; format: cell-based; details: Homo sapiens, 2 hours, no serum, read-out: EC50
Method in brief: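 Electrochemiluminescent MSD ELISA of Thr308-phosphorylated Akt after a 2 h serum-free compound exposure of PC-3 cells (15,000/well, plated overnight). Controls: DMSO (high), 5 μM wortmannin (low). Lysate binding overnight at 4 °C; detection antibody 1 h at room temperature.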

[2] = inhibition of P308 Akt in PC-3 cells using MSD
[3] = inhibition of phospo-PDK1 in vitro
[4] = inhibition of P308 Akt in PC-3 cells, MSD

Sequence of PDK1 (O15530 51-359): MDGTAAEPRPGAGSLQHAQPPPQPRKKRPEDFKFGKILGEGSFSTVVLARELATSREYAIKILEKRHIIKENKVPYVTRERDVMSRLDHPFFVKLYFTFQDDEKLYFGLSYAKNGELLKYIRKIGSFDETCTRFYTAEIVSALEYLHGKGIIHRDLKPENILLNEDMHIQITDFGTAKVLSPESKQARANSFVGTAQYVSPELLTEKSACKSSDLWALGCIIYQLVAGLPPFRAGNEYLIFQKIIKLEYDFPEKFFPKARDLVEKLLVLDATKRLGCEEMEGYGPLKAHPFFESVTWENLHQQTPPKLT

| Compound | IC50 (PDK1; inhibition of PDK1 in vitro) [nM] | EC50 [1, 2] [nM] | IC50 (PDK1; [3]) [nM] | EC50 [1, 4] [nM] | EC50 ([1]; PC-3, 2 h, inhibition of P308 Akt in PC-3 cells using MSD) [nM] |
| --- | --- | --- | --- | --- | --- |
| CNC(=O)c1nc(-c2ccc(CNc3ncc(C#N)cc3C(=O)N[C@@H](C)c3ccc(F)cc3)cc2)cnc1N [Example 216, (S)-3-amino-6-(4-((5-cyano-3-(1-(4-fluorophenyl)ethylcarbamoyl)pyridin-2-ylamino)methyl)phenyl)-N-methylpyrazine-2-carboxamide] | < 100 | < 1000 | – | – | – |
| Nc1ncnc2ccc(-c3ccc(CNc4ncccc4C(=O)NC4CCCCCC4)s3)cc12 [Example 3.30, 2-({[5-(4-aminoquinazolin-6-yl)thiophen-2-yl]methyl}amino)-N-cycloheptylpyridine-3-carboxamide (TFA salt)] | – | – | > 5000 | > 10000 | – |
| Nc1n[nH]c2ncc(-c3ccc(CNc4ncc(C(F)(F)F)cc4C(=O)NCc4cscn4)cc3)cc12 [Example 273, 2-(4-(3-amino-1H-pyrazolo [3,4-b]pyridin-5-yl)benzylamino)-N-(thiazol-4-ylmethyl)-5-(trifluoromethyl) nicotinamide] | < 100 | 1000 to 10000 | – | – | – |
| CC(C)Oc1cc(CNc2ncccc2C(=O)N(C)c2cccc(F)c2)cc(-c2c[nH]c3ncc(C(=O)NC4CC4)cc23)c1 [Example 4.1.8, N-cyclopropyl-3-{3-[({3-[(3-fluorophenyl)(methyl)carbamoyl]pyridin-2-yl}amino)methyl]-5-(propan-2-yloxy)phenyl}-1H-pyrrolo[2,3-b] pyridine-5-carboxamide] | – | – | > 5000 | 1000 to 10000 | – |
| C[C@H](NC(=O)c1cc(C#N)cnc1NCc1ccc(-c2cnc(NCCO)cn2)cc1)c1ccc(F)cc1 [Example 227, 5-Cyano-N-[(S)-1-(4-fluoro-phenyl)-ethyl]-2-{4-[5-(2-hydroxy-ethylamino)-pyrazin-2-yl]-benzylamino}-nicotinamide] | 100 to 1000 | 1000 to 10000 | – | – | – |
| CC(=O)Nc1cnc(NCc2ccc(-c3ccc4ncnc(N)c4c3)s2)c(C(=O)NCc2ccc(F)c(F)c2)c1 [Ex. 8.5.1, 5-(acetylamino)-2-({[5-(4-aminoquinazolin-6-yl)thiophen-2-yl]methyl}amino)-N-(3,4-difluorobenzyl)pyridine-3-carboxamide] | – | – | < 100 | 1000 to 10000 | – |
| C[C@@H](NC(=O)c1cccnc1NCc1ccc(-c2ccc3ncnc(N)c3c2)s1)c1ccc(F)cc1 [Example 3.14, 2-({[5-(4-aminoquinazolin-6-yl)thiophen-2-yl]methyl}amino)-N-[(1R)-1-{4-fluorophenyl)ethyl]pyridine-3-carboxamide (TFA salt)] | – | – | > 5000 | > 10000 | – |
| C[C@H](NC(=O)c1nc(C#N)cnc1NCc1ccc(-c2cnc(N)c(CC[C@@H]3CCCN3)n2)cc1)c1ccc(F)c(F)c1 [Example 78, 3-{4-[5-Amino-6-((S)-2-pyrrolidin-2-yl-ethyl)-pyrazin-2-yl]-benzylamino}-6-cyano-pyrazine-2-carboxylic acid [(S)-1-(3,4-difluoro-phenyl)-ethyl]-amide] | < 100 | 1000 to 10000 | – | – | – |
| C=C(C)c1cnc(NCc2ccc(-c3ccc4ncnc(N)c4c3)s2)c(C(=O)NCc2ccc(F)c(F)c2)n1 [Ex. 10.5, 3-({[5-(4-aminoquinazolin-6-yl)thiophen-2-yl]methyl}amino)-N-(3,4-difluorobenzyl)-6-(prop-1-en-2-yl)pyrazine-2-carboxamide] | – | – | < 100 | 1000 to 10000 | – |
| Nc1n[nH]c2ncc(-c3ccc(CNc4ncc(C(F)(F)F)cc4C(=O)NCC4CCOC4)cc3)cc12 (stereo not shown) [Example 268, 2-(4-(3-amino-1H-pyrazolo [3,4-b]pyridin-5-yl)benzylamino)-N-((tetrahydro-furan-3-yl)methyl)-5-(trifluoromethyl) nicotinamide] | 100 to 1000 | > 10000 | – | – | – |
| Nc1ncnc2ccc(-c3ccc(CNc4nccc(C(F)(F)F)c4C(=O)NCc4ccc(F)c(F)c4)s3)cc12 [Example 8.12.4, 2-({[5-(4-aminoquinazolin-6-yl)thiophen-2-yl]methyl}amino)-N-(3,4-difluorobenzyl)-4-(trifluoromethyl)pyridine-3-carboxamide] | – | – | > 5000 | 1000 to 10000 | – |
| C[C@H](NC(=O)c1cc(C#N)cnc1NCc1ccc(-c2ccc(N)nc2)cc1)c1ccc(F)cc1 [Example 106, (S)-2-(4-(6-aminopyridin-3-yl)benzylamino)-5-cyano-N-(1-(4-fluorophenyl)ethyl) nicotinamide] | < 100 | < 1000 | – | – | – |
| C[C@H](NC(=O)c1cc(F)cnc1NCc1ccc(-c2cc3c(N)ncnc3cn2)s1)c1ccc(F)cc1 | – | – | 100 to 1000 | 1000 to 10000 | – |
| Cc1ccc(Nc2ncccc2C(=O)NCc2ccc(F)c(F)c2)cc1-c1ccc2c(c1)CNC2=O [Example 17.2] | – | – | > 5000 | > 10000 | – |
| C[C@H](NC(=O)c1cc(C#N)cnc1N[C@H](CC(N)=O)c1ccc(-c2c[nH]c3ncnc(N)c23)cc1)c1ccc(F)cc1 [Example 46, 2-((R)-3-amino-1-(4-(4-amino-7H-pyrrolo[2,3-d]pyrimidin-5-yl)phenyl)-3-oxopropylamino)-5-cyano-N—((S)-1-(4-fluorophenyl)ethyl)nicotinamide] | < 100 | > 10000 | – | – | – |
| COc1ccnc(NCc2ccc(-c3ccc4ncnc(N)c4c3)s2)c1C(=O)N[C@@H](C)c1ccc(F)cc1 [Ex. 7.6, (S)-2-(((5-(4-aminoquinazolin-6-yl)thiophen-2-yl)methyl)amino)-N-(1-(4-fluoro-phenyl)ethyl)-4-methoxynicotinamide] | – | – | < 100 | < 1000 | – |
| Nc1ncnc2ccc(-c3ccc(CNc4nc(C(F)(F)F)ccc4C(=O)NCc4ccc(F)c(F)c4)s3)cc12 [Example 8.12.2, 2-({[5-(4-aminoquinazolin-6-yl)thiophen-2-yl]methyl}amino)-N-(3,4-difluorobenzyl)-6-(trifluoromethyl)pyridine-3-carboxamide] | – | – | < 100 | 1000 to 10000 | – |
| Nc1ccc(-c2ccc(CNc3ncccc3C(=O)NCc3cncc(F)c3)cc2)cn1 [Example 373, 2-(4-(6-aminopyridin-3-yl)benzylamino)-N-((5-fluoropyridin-3-yl)methyl)nicotinamide] | 1000 to 5000 | 1000 to 10000 | – | – | – |
| Nc1cnc(-c2ccc(CNc3ncc(C(F)(F)F)cc3C(=O)Nc3ccc(F)cc3)cn2)cn1 [Example 325] | 100 to 1000 | – | – | – | 1000 to 10000 |
| NCCNc1n[nH]c2ncc(-c3ccc(CNc4ncc(C(F)(F)F)cc4C(=O)Nc4ccc(F)cc4)cc3)cc12 [Example 154, 2-(4-(3-(2-amino-ethylamino)-1H-pyrazolo [3,4-b]pyridin-5-yl)benzylamino)-N-(4-fluorophenyl)-5-(trifluoromethyl) nicotinamide] | < 100 | < 1000 | – | – | – |
| O=C(NCc1ccc(F)c(F)c1)c1cccnc1NCc1cccc(-c2c[nH]c3ncncc23)c1 [Example 6.2, 2-(3-(7H-pyrrolo[2,3-d]pyrimidin-5-yl)benzylamino)-N-(3,4-difluorobenzyl)nicotinamide] | – | – | < 100 | 1000 to 10000 | – |
| C[C@H](NC(=O)c1cc(C#N)cnc1NCc1ccc(-c2cnc(N)c(CCC(C)(C)N)n2)cc1)c1ccc(F)cc1 [Example 82, 2-{4-[5-Amino-6-(3-amino-3-methyl-butyl)-pyrazin-2-yl]-benzylamino}-5-cyano-N-[(S)-1-(4-fluoro-phenyl)-ethyl]-nicotinamide] | < 100 | < 1000 | – | – | – |
| N#Cc1cnc(NC/C=C/c2ccc3c(c2)NC(=O)/C3=C\c2cnc[nH]2)c(C(=O)O)c1 [Example 15.16, 2-((E)-3-((Z)-3-((1H-imidazol-5-yl)methylene)-2-oxoindolin-6-yl)allylamino)-5-cyanonicotinic acid] | – | – | 100 to 1000 | > 10000 | – |
| CN(C)CC(=O)Nc1cnc(NCc2ccc(-c3ccc4ncnc(N)c4c3)s2)c(C(=O)NCc2ccc(F)c(F)c2)c1 [Example 8.5.8, 2-({[5-(4-aminoquinazolin-6-yl)thiophen-2-yl]methyl}amino)-N-(3,4-difluorobenzyl)-5-[(N,N-dimethylglycyl)amino] pyridine-3-carboxamide] | – | – | 100 to 1000 | 1000 to 10000 | – |
| C[C@H](NC(=O)c1cccnc1Nc1ccc(-c2ccc3ncnc(N)c3c2)s1)c1ccc(F)c(F)c1 [Example 51, (S)-2-(5-(4-aminoquinazolin-6-yl)thiophen-2-ylamino)-N-(1-(3,4-difluorophenyl)ethyl)nicotinamide] | > 5000 | > 10000 | – | – | – |
| Cn1cc(-c2ccc(CNc3ncc(C(F)(F)F)cc3C(=O)Nc3ccc(F)cn3)cc2)c2c(N)ncnc21 [Example 338, 2-(4-(4-amino-7-methyl-7H-pyrrolo[2,3-d]pyrimidin-5-yl)-benzylamino)-N-(5-fluoropyridin-2-yl)-5-(trifluoromethyl)nicotinamide] | < 100 | 1000 to 10000 | – | – | – |
| Nc1n[nH]c2ncc(-c3ccc(CNc4ncc(C(F)(F)F)cc4C(=O)Nc4cncc(F)c4)cc3)cc12 [Example 306, 2-(4-(3-amino-1H-pyrazolo [3,4-b]pyridin-5-yl)benzylamino)-N-(5-fluoropyridin-3-yl)-5-(trifluoromethyl)nicotinamide] | < 100 | < 1000 | – | – | – |
| C[C@H](NC(=O)c1cc(C#N)cnc1NCc1ccc(-c2cnc(N)c(C(=O)NCC(O)CO)c2)cc1)c1ccc(F)cc1 (stereo partly shown) [Example 206] | < 100 | 1000 to 10000 | – | – | – |
| COc1cc(-c2ccc(CNc3ncc(C#N)cc3C(=O)N[C@@H](C)c3ccc(F)cc3)cc2)cnc1N [Example 133, (S)-2-(4-(6-amino-5-methoxypyridin-3-yl)benzylamino)-5-cyano-N-(1-(4-fluorophenyl)ethyl)nicotinamide] | < 100 | < 1000 | – | – | – |
